Data as given in article PMC8155809 (The Journal of General Physiology, 2021).

Target: T1, TREK-2 Y315A (Homo sapiens, UniProt P57789, Y310A)
T1 construct: expressed in transfected cells; host or cells: HEK293 cells, transient transfection with pcDNA3
T1 sequence (P57789 1-543 isoform P57789-4 Y315A): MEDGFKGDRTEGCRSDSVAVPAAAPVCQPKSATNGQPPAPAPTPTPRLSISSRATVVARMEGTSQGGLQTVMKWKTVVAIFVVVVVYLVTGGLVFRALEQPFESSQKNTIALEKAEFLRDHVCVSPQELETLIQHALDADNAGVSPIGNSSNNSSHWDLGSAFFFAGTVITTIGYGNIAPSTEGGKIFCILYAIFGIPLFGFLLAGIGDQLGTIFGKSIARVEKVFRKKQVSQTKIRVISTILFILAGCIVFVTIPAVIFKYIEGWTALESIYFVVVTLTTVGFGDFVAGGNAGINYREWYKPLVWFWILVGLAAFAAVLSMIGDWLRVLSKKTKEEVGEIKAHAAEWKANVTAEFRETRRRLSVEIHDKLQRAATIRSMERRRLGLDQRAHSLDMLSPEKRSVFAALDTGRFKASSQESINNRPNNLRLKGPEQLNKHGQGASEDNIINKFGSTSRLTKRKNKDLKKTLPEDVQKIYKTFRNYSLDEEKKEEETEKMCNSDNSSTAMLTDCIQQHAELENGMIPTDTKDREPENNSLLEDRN
Experiment: Single-channel recordings of TREK-2 Y315A mutant in excised patches from HEK293 cells
Assay type: cell-based
Settings: 10 µM NFx; before desensitization (effect dramatically reduced within ∼30 s)
Method: HEK293 cells were cultured in DMEM (Sigma) containing 10% FBS (Life Technologies), 3 mM glucose, and 2 mM glutamine at 37°C in a humidified atmosphere of 5% CO2/[…] at 37°C. Cells were transiently transfected with 0.2 µg channel pcDNA3 per dish using FuGENE 6 according to the manufacturer’s instructions. Cells were used 1–2 d after transfection.
For currents recorded in Xenopus laevis oocytes, giant-patch electrodes were pulled from thick-walled borosilicate glass and polished to give pipette resistances of ∼0.3–0.5 MΩ when filled with patch solution. […] Patches were perfused via a gravity-flow perfusion system and a HEKA EPC 10 USB single computer–controlled amplifier was used and currents recorded using a Patchmaster v2 × 90.5 (HEKA Electronics), filtered at 1 kHz, and sampled at 10 kHz. For currents recorded in HEK293 cells, patch electrodes were pulled from thick-walled borosilicate glass and polished to give pipette resistances of ∼3–5 MΩ when filled with patch solution. The currents were recorded from excised patches with both intracellular and extracellular solution containing 200 mM KCl and 10 mM HEPES (pH 6.0 with KOH). […] Data were acquired with pClamp and recorded using an Axopatch 200B (Molecular Devices), filtered at 5 kHz, and sampled at 200 kHz. Single-channel currents were analyzed in an identical manner to those obtained from bilayers (see above). […]

NCCC(Oc1ccc(C(F)(F)F)cc1)c1ccccc1 (stereo not shown) [NFx, norfluoxetine]
initial reduction of channel Po: > 90%
